Data from ChEMBL document CHEMBL1159041, “A study of the effects of substituents on the selectivity of the binding of N-arylaminomethylene malonate inhibitors to DHODH” (Bioorg Med Chem Lett, 2010).

What was measured:
[1] = molecular target: Dihydroorotate dehydrogenase (quinone), mitochondrial (Homo sapiens) (UniProt Q02127); assay: Inhibition of human DHODH at 50 uM
[2] = molecular target: T1, Dihydroorotate dehydrogenase (Plasmodium falciparum) (UniProt Q54A96); assay: Inhibition of Plasmodium falciparum DHODH at 50 uM
T1 sequence (whole entry): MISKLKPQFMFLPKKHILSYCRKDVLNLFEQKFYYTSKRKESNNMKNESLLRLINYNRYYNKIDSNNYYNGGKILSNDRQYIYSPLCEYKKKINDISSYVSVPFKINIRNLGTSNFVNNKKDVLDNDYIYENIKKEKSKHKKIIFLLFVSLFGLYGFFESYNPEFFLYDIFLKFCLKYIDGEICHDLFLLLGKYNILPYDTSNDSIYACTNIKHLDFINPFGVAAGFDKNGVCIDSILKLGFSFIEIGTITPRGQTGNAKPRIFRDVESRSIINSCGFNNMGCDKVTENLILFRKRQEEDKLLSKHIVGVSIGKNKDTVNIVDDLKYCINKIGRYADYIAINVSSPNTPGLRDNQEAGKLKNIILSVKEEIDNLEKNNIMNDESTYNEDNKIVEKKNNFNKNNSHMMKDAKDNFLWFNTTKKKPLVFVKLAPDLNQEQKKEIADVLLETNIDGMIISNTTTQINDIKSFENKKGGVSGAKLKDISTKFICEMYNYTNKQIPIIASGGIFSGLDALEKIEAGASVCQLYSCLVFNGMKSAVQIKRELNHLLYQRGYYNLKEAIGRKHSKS

Sequence of Dihydroorotate dehydrogenase (quinone), mitochondrial (Homo sapiens) (Q02127 whole entry): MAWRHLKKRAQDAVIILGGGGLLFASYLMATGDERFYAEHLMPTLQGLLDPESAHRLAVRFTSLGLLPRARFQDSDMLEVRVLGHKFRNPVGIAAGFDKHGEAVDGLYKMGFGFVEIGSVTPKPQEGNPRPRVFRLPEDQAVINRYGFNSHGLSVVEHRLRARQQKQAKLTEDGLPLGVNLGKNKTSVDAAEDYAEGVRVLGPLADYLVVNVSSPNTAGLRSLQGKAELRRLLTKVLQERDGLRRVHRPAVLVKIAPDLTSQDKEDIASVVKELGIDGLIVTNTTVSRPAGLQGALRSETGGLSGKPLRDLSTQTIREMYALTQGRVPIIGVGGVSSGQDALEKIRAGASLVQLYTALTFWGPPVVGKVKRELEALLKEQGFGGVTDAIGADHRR

Row | SMILES | inhibition [1] [%] | inhibition [2] [%]
1 | CCOC(=O)c1ccc(NC=C2C(=O)OC(C)(C)OC2=O)cc1Cl | 0 | 12
2 | CC1(C)OC(=O)C(=CNc2ccc(Cl)c(C(=O)O)c2)C(=O)O1 | 21 | 50
3 | CCOC(=O)C(=CNc1ccc(Cl)c(C(=O)O)c1)C(=O)OCC | 39 | 37
4 | CCOC(=O)/C(C#N)=C\Nc1ccc(C(=O)OCC)cc1 | 2 | 2
5 | CCOC(=O)C(=CNc1cccc(C(=O)O)c1)C(=O)OCC | 33 | 54
6 | CCOC(=O)/C(C#N)=C\Nc1ccc(C(=O)OCC)c(Cl)c1 | 12 | 66
7 | CCOC(=O)/C(C#N)=C\Nc1ccc(Cl)c(C(=O)O)c1 | 45 | 44
8 | CCOC(=O)C(=CNc1ccc(C(=O)O)cc1)C(=O)OCC | 37 | 43
9 | CCOC(=O)/C(C#N)=C\Nc1ccc(C(=O)O)cc1 | 29 | 0
10 | CCOC(=O)/C(C#N)=C\Nc1cccc(C(=O)O)c1 | 23 | 0
11 | CCOC(=O)C(=CNc1ccc(C(=O)OCC)cc1)C(=O)OCC | 4 | 15
12 | CCOC(=O)C(=CNc1cccc(C(=O)OCC)c1)C(=O)OCC | 5 | 0
13 | CCOC(=O)c1ccc(NC=C2C(=O)OC(C)(C)OC2=O)cc1 | 3 | 0
14 | CC1(C)OC(=O)C(=CNc2cccc(C(=O)O)c2)C(=O)O1 | 27 | 25
15 | CCOC(=O)C(=CNc1ccc(Cl)c(C(=O)OCC)c1)C(=O)OCC | 16 | 39
16 | CCOC(=O)c1cccc(NC=C2C(=O)OC(C)(C)OC2=O)c1 | 1 | 0
17 | CC1(C)OC(=O)C(=CNc2ccc(C(=O)O)cc2)C(=O)O1 | 32 | 28
18 | CCOC(=O)/C(C#N)=C\Nc1ccc(Cl)c(C(=O)OCC)c1 | 14 | 24
19 | CCOC(=O)C(=CNc1ccc(C(=O)OCC)c(Cl)c1)C(=O)OCC | 8 | 60
20 | CCOC(=O)c1cc(NC=C2C(=O)OC(C)(C)OC2=O)ccc1Cl | 5 | 0
21 | CCOC(=O)/C(C#N)=C\Nc1ccc(C(=O)O)c(Cl)c1 | 39 | 33
22 | CC1(C)OC(=O)C(=CNc2ccc(C(=O)O)c(Cl)c2)C(=O)O1 | 21 | 41
23 | CCOC(=O)/C(C#N)=C\Nc1cccc(C(=O)OCC)c1 | 2 | 23
